What was measured:
Phospho-Akt (S473) = assay: Cell ELISA Assay, Phospho-Akt detection; assay type: cell-based; conditions: cells treated for 1 hour, cell line not stated
Protocol: Phospho-Akt detection analysis. Phospho-Akt (S473) was detected using cell ELISA. Briefly, cells were plated in a 96-well plate at 7,000-10,000 cells per well, cultured for 2-3 days in complete growth medium, and then treated with various drugs or combinations of drugs for 1 hour. The cells were fixed with ice-cold methanol, and washed with TBS supplemented with 1% H2O2. Phospho-Akt (S473) was probed with corresponding rabbit antibody as a primary antibody, and horseradish peroxidase conjugated goat anti-rabbit IgG. After treatment with SuperSignal® ELISA for 15 minutes, the detection was performed using a luminometer. Data were normalized to untreated controls and analyzed with Microsoft Excel.

cells = assay: Cell proliferation / viability GI50 (MTS assay or ATP quantitation assay); assay type: cell-based; conditions: 72 hours treatment; cell line and assay (MTS or ATP quantitation) not stated
Protocol: Cell proliferation analysis. Cell survival was determined by the MTS assay. Briefly, cells were plated in a 96-well plate at 2,000-10,000 cells per well, cultured for 24 hours in complete growth medium, and then treated with various drugs and drug combinations for 72 hours. MTS was added and incubated for 4 hour, followed by assessment of cell viability using the microplate reader at 570 nm. Data were normalized to untreated controls and analyzed with Microsoft Excel.
Cell viability analysis. Cell viability was determined by the ATP quantitation assay. Briefly, cells were plated in a 96-well plate at 2,000-10,000 cells per well, cultured for 24 hours in complete growth medium, and then treated with various drugs or combination of drugs for 72 hours. CellTiter-Glo® reagent was added and incubated at room temperature for 10 minutes, followed by assessment of cell viability using a luminometer. Data were normalized to untreated controls and analyzed with Microsoft Excel.

[1] = molecular target: T1, Full-length inactive AKT1 (Homo sapiens (Human), UniProt P31749); assay: Thermal Shift Assay (protein-ligand binding); conditions: Kd at 25° C. calculated using constant ligand binding enthalpy −15 kcal/mol; 15 μM compound, ANS dye
T1 sequence (P31749 whole entry): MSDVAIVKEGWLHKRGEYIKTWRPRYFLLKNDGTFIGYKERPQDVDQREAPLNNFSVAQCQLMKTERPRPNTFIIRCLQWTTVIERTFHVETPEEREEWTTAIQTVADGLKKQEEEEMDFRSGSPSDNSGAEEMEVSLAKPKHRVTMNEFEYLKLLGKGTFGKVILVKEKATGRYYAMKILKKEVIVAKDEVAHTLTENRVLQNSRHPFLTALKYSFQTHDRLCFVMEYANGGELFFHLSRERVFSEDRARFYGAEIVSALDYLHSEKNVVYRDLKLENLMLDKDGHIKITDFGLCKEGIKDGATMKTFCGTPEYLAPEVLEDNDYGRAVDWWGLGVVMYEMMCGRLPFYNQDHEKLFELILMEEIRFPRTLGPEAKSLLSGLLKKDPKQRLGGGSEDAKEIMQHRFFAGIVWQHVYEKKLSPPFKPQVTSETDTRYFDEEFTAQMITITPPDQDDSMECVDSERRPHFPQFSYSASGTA
Protocol: Binding analysis. Protein-ligand binding was identified with the thermal shift assay which is based on the ligand-induced stabilization of the protein tertiary structure. The thermal stability of the ligand-Akt1 complex was assessed by subjecting the complex to a set temperature gradient and by comparison of the meltion temperature of the Akt1-ligand complex with the melting temperature of the protein alone. Protein unfolding was monitored by the fluorescence readout of an environmentally sensitive fluorescent dye, 1-anilinonaphthalene-8-sulfonic acid (ANS). […] The PCR plate was placed into a RT-PCR instrument and a temperature gradient was performed, increasing from 27 to 80° C., at 1° C./30 sec heat rate with a dwell time of 20 sec. The change in ANS fluorescence was measured using the filter set of 475 nm/525 nm excitation/emission.

[2] = molecular target: T1, Full-length inactive AKT1; assay: Inactive Akt Alpha Screen Assay; conditions: 8 nM inactive Akt1 activated by PDK1 and MAPKAPK2, lipid vesicles, 50 μM ATP, biotinylated crosstide; read-out: Akt1 biochemical assay IC50 AlphaScreen crosstide
Protocol: AKT1 activity was assayed using the GSK3-derived biotinylated peptide substrate, crosstide (biotin-[…]), and AlphaScreen™ (Amplified Luminescent Proximity Homogeneous Assay) technology. AKT1 activation was achieved by the addition of the activating kinases PDK1 and MAPKAPK2, lipid vesicles, and ATP. The extent of peptide phosphorylation was determined using a phospho-AKT substrate antibody and acceptor beads conjugated to Protein A and donor beads conjugated to streptavidin that bind to the biotin on the peptide. Excitation of the donor beads converted ambient oxygen to excited singlet oxygen which, when in close proximity to acceptor beads, reacted with acceptor beads resulting in signal amplification.
After a 20 minute pre-incubation at room temperature, the kinase reaction was initiated by the addition of 5 μL of an activation mixture diluted in assay buffer containing biotinylated crosstide, PDK1, MAPKAPK2, DOPS/DOPC, PtdIns(3,4,5)P3, and ATP for final concentrations of 60 nM biotinylated crosstide, 0.1 nM PDK1, 0.7 nM MK2, 5.5 μM DOPS, 5.5 μM DOPC, 0.5 μM PtdIns(3,4,5)P3, and 50 μM ATP. The plates were incubated for 30 minutes at room temperature, and then stopped in the dark by the addition of 10 μL stop/detection mixture prepared in assay buffer containing EDTA, AlphaScreen™ Streptavidin Donor and Protein A Acceptor beads, and phospho-AKT substrate antibody for final concentrations of 10 mM EDTA, 500 ng/well of both AlphaScreen™ Streptavidin Donor beads and Protein A Acceptor beads, and phospho-AKT substrate antibody at a final dilution of 1:350. Assay plates were incubated for 90 minutes at room temperature in the dark, and the plates were read on a Perkin Elmer Envision Multilabel plate reader (excitation wavelength: 640 nm, emission wavelength: 570 nm). […]

IC50 (Phospho-Akt (S473)) [µM] | Kd [1] [µM] | IC50 [2] [µM] | Compound | GI50 (cells) [µM]
0.012 |  |  | C[C@H](O)CNC(=O)c1cccc(-c2ccc3nc(-c4cccnc4N)n(-c4ccc(C5(N)CCC5)cc4)c3n2)c1 [Cmpd 7, (S)-3-(3-(4-(1-aminocyclobutyl)phenyl)-2-(2-aminopyridin-3-yl)-3H-imidazo[4,5-b]pyridin-5-yl)-N-(2-hydroxypropyl)benzamide] | 836
0.003 | 0.0002 | 0.00415 | CCN(CC)C(=O)C1CCN(c2cccc(-c3ccc4nc(-c5cccnc5N)n(-c5ccc(C6(N)CCC6)cc5)c4n3)c2)CC1 [Cmpd 10, 1-(3-(3-(4-(1-aminocyclobutyl)phenyl)-2-(2-aminopyridin-3-yl)-3H-imidazo[4,5-b]pyridin-5-yl)phenyl)-N,N-diethylpiperidine-4-carboxamide] | 
0.009 | 0.0014 | 0.00215 | CCC(=O)N1CCN(c2cccc(-c3ccc4nc(-c5cccnc5N)n(-c5ccc(C6(N)CCC6)cc5)c4n3)c2)CC1 [Cmpd 13, 1-(4-(3-(3-(4-(1-aminocyclobutyl)phenyl)-2-(2-aminopyridin-3-yl)-3H-imidazo[4,5-b]pyridin-5-yl)phenyl)piperazin-1-yl)propan-1-one] | 335
0.029 | 0.007 | 0.00309 | Nc1ncccc1-c1nc2ccc(-c3cccc(NC(=O)C4CC4)c3)nc2n1-c1ccc(C2(N)CCC2)cc1 [Cmpd 3, N-(3-(3-(4-(1-aminocyclobutyl)phenyl)-2-(2-aminopyridin-3-yl)-3H-imidazo[4,5-b]pyridin-5-yl)phenyl)cyclopropane-carboxamide] | 444
0.605 | 0.11 |  | Nc1ncccc1-c1nc2ccc(Sc3ccccc3)nc2n1-c1ccc(C2(N)CCC2)cc1 [Cmpd 21, 3-(3-(4-(1-aminocyclobutyl)phenyl)-5-(phenylthio)-3H-imidazo[4,5-b]pyridin-2-yl)pyridin-2-amine] | 
0.008 |  |  | C[C@@H](O)CNC(=O)c1cccc(-c2ccc3nc(-c4cccnc4N)n(-c4ccc(C5(N)CCC5)cc4)c3n2)c1 [Cmpd 8, (R)-3-(3-(4-(1-aminocyclobutyl)phenyl)-2-(2-aminopyridin-3-yl)-3H-imidazo[4,5-b]pyridin-5-yl)-N-(2-hydroxypropyl)benzamide] | 1350
0.0021 | 0.0002 | 0.00251 | CN(C)C(=O)C1CCN(c2cccc(-c3ccc4nc(-c5cccnc5N)n(-c5ccc(C6(N)CCC6)cc5)c4n3)c2)CC1 [Cmpd 9, 1-(3-(3-(4-(1-aminocyclobutyl)phenyl)-2-(2-aminopyridin-3-yl)-3H-imidazo[4,5-b]pyridin-5-yl)phenyl)-N,N-dimethylpiperidine-4-carboxamide] | 
 | 0.0007 | 0.00446 | CC(=O)OC(C)(C)C(=O)Nc1cccc(-c2ccc3nc(-c4cccnc4N)n(-c4ccc(C5(N)CCC5)cc4)c3n2)c1 [Cmpd 5, 1-((3-(3-(4-(1-aminocyclobutyl)phenyl)-2-(2-aminopyridin-3-yl)-3H-imidazo[4,5-b]pyridin-5-yl)phenyl)amino)-2-methyl-1-oxopropan-2-yl acetate] | 

Second part, the compound before the results:

Compound | IC50 (Phospho-Akt (S473)) [µM] | Kd [1] [µM] | IC50 [2] [µM] | GI50 (cells) [µM]
C[C@@H]1CN(c2cccc(-c3ccc4nc(-c5cccnc5N)n(-c5ccc(C6(N)CCC6)cc5)c4n3)c2)C[C@H](C)O1 [Cmpd 17, 3-(3-(4-(1-aminocyclobutyl)phenyl)-5-(3-((2S,6R)-2,6-dimethylmorpholino)phenyl)-3H-imidazo[4,5-b]pyridin-2-yl)pyridin-2-amine] |  | 0.0031 | 0.00436 | 
CC(C)(C)C(=O)Nc1cccc(-c2ccc3nc(-c4cccnc4N)n(-c4ccc(C5(N)CCC5)cc4)c3n2)c1 [Cmpd 4, N-(3-(3-(4-(1-aminocyclobutyl)phenyl)-2-(2-aminopyridin-3-yl)-3H-imidazo[4,5-b]pyridin-5-yl)phenyl)pivalamide] | 0.017 | 0.0004 | 0.0017 | 265
Nc1ncccc1-c1nc2ccc(Oc3ccccc3)nc2n1-c1ccc(C2(N)CCC2)cc1 [Cmpd 22, 3-(3-(4-(1-aminocyclobutyl)phenyl)-5-phenoxy-3H-imidazo[4,5-b]pyridin-2-yl)pyridin-2-amine] |  | 0.0831 |  | 
Nc1ncccc1-c1nc2ccc(-c3cccc(N4CCC(C(=O)N5CCOCC5)CC4)c3)nc2n1-c1ccc(C2(N)CCC2)cc1 [Cmpd 11, (1-(3-(3-(4-(1-aminocyclobutyl)phenyl)-2-(2-aminopyridin-3-yl)-3H-imidazo[4,5-b]pyridin-5-yl)phenyl)piperidin-4-yl)(morpholino)methanone] | 0.0017 | 0.0002 | 0.00336 | 
Nc1ncccc1-c1nc2ccc(Nc3ccccc3)nc2n1-c1ccc(C2(N)CCC2)cc1 [Cmpd 19, 3-(4-(1-aminocyclobutyl)phenyl)-2-(2-aminopyridin-3-yl)-N-phenyl-3H-imidazo[4,5-b]pyridin-5-amine] | 0.06 |  | 0.00377 | 1420
Nc1ncccc1-c1nc2ccc(N3CCOCC3)nc2n1-c1ccc(C2(N)CCC2)cc1 [Cmpd 1, 3-(3-(4-(1-aminocyclobutyl)phenyl)-5-morpholino-3H-imidazo[4,5-b]pyridin-2-yl)pyridin-2-amine] | 0.235 |  |  | 
Nc1ncccc1-c1nc2ccc(Nc3ccc(N4CCOCC4)cc3)nc2n1-c1ccc(C2(N)CCC2)cc1 [Cmpd 20, 3-(4-(1-aminocyclobutyl)phenyl)-2-(2-aminopyridin-3-yl)-N-(4-morpholinophenyl)-3H-imidazo[4,5-b]pyridin-5-amine] | 0.414 | 0.0573 | 0.00872 | 
CC(C)(C)C(=O)N1CCN(c2cccc(-c3ccc4nc(-c5cccnc5N)n(-c5ccc(C6(N)CCC6)cc5)c4n3)c2)CC1 [Cmpd 16, 1-(4-(3-(3-(4-(1-aminocyclobutyl)phenyl)-2-(2-aminopyridin-3-yl)-3H-imidazo[4,5-b]pyridin-5-yl)phenyl)piperazin-1-yl)-2,2-dimethylpropan-1-one] |  | 0.0017 | 0.00342 | 
Nc1ncccc1-c1nc2ccc(-c3cccc(N4CCS(=O)(=O)CC4)c3)nc2n1-c1ccc(C2(N)CCC2)cc1 [Cmpd 18, 4-(3-(3-(4-(1-aminocyclobutyl)phenyl)-2-(2-aminopyridin-3-yl)-3H-imidazo[4,5-b]pyridin-5-yl)phenyl)thiomorpholine 1,1-dioxide] |  | 0.0008 | 0.00179 | 
CC(C)C(=O)N1CCN(c2cccc(-c3ccc4nc(-c5cccnc5N)n(-c5ccc(C6(N)CCC6)cc5)c4n3)c2)CC1 [Cmpd 15, 1-(4-(3-(3-(4-(1-aminocyclobutyl)phenyl)-2-(2-aminopyridin-3-yl)-3H-imidazo[4,5-b]pyridin-5-yl)phenyl)piperazin-1-yl)-2-methylpropan-1-one] | 0.004 | 0.0011 |  | 
CC(C)(O)C(=O)Nc1cccc(-c2ccc3nc(-c4cccnc4N)n(-c4ccc(C5(N)CCC5)cc4)c3n2)c1 [Cmpd 6, N-(3-(3-(4-(1-aminocyclobutyl)phenyl)-2-(2-aminopyridin-3-yl)-3H-imidazo[4,5-b]pyridin-5-yl)phenyl)-2-hydroxy-2-methylpropanamide] |  | 0.0014 | 0.00163 | 
